Patent US4798898A, “Antitussive and mucus regulating 2-substituted thiazolidines” (Boehringer Biochemia Robin S.p.A., priority 1984, dated 1989)
Counter-ions that a name gives are not always drawn. One block for each compound: values may come before it.

Legend:
[1] = tested on: cough induced by electric stimulation in dogs; assay: Dog cough test (cough induced by electric stimulation, Stefko procedure); format: in vivo, conscious mongrel dogs; settings: for duration of action (antitussive): test not named; for duration of action: in words
Procedure: (§1) The techniques described by Charlier et al. (Arch. Int. Pharmacodyn. 134, 306, 1961) and by Stefko et al. (J. Pharm. Exp. Therap., 108, 217, 1953), adapted with minor modifications, are used to investigate the antitussive properties of the compounds of the invention. Codeine phosphate is used as positive reference compound.
In the Stefko procedure, conscious mongrel dogs (15±3 kg body weight) are used; the compounds of the invention are tested for their ability to inhibit cough induced by electric stimulation.
Under general anesthesia, two insulated nichrome wires (0.4 mm diameter) are surgically implanted into the submucosa of the trachea.
About two days later, the dogs are placed in a sling and the exteriorized electrodes are connected to an electric stimulating device (such as Grass S 48 Mod.).
The stimulation parameters such as: delay 0.01 msec, duration 1 msec, frequency 30 Hz, are used.
An electrical stimulus of 1 sec is applied 10 times at 5 sec intervals in order to determine the minimum voltage necessary for eliciting reproducible cough responses. Then, tussive responses to the electrical stimuli are registered at 15, 30, 60, 90, 120, 150, 180, 240, 300 and 360 minutes after oral administration of the compounds of the invention.
The tussive responses are scored as follows: 1: no response; 2: sigh or exaggerated expiration; 3: marked cough; 4: one marked cough and one exaggerated expiration: 5: two marked coughs.
Six dogs are employed for each determination and the mean activity is calculated.
The inhibition percent of the cough response and the duration of activity are compared with codeine.

[2] = tested on: cough induced by citric acid aerosol in guinea pigs; assay: Guinea pig cough test (citric acid aerosol, Charlier procedure); format: in vivo; settings: Cavia porcellus, inhaled or nasal, antitussive test not given
[3] = tested on: pathological sputum of bronchitic rabbits; assay: Mucus regulating properties in bronchitic rabbits (sputum AUC as % compared to bronchitic controls); format: in vivo, male New Zealand white rabbits; settings: for Fucose (mg/ml), AUC as a 100% compared to bronchitic controls / Galactose (mg/ml), AUC as a 100% compared to bronchitic controls / Mucus production (ml/kg), AUC as a 100% compared to bronchitic controls / Phospholipids (mg/ml), AUC as a 100% compared to bronchitic controls / Protein (mg/ml), AUC as a 100% compared to bronchitic controls / Sialic acid (mg/ml), AUC as a 100% compared to bronchitic controls / Viscosity (cps), AUC as a 100% compared to bronchitic controls: Table 2, oral, equimolecular amounts to S-carboxymethyl cysteine; for mucus regulating activity (in words): rabbit, in vivo
Procedure: The animals are submitted to inhalation of a 5% H2 SO3 aqueous solution by aerosol (exposition of 3 hours a day for 3 alternate days), to induce a chronic bronchial inflammatory disease which causes a production of pathological sputum in the bronchial tree.
Aim of the experiments is to evaluate modifications of selective parameters such as dry weight of the sputum, viscosity, content in proteins, phospholipids, galactose, sialic acid and fucose, induced in this pathological sputum by pharmacological treatment with the compounds of the invention.
To this purpose, the sputum produced in the bronchial tree is collected daily, through a "T" shaped glass cannula, inserted in the trachea, before and after oral twice a day (9.00 a.m. and 4.00 p.m.) treatment with one of the compounds of the invention.
The schedule treatment procedure is shown in the following Scheme 1: [drawing 21] where 0 indicates the day of implantation of the tracheal cannula; -7-5-3 indicate the days of H2 SO3 treatment (H); 1, 2, 3, 4 indicate the days of oral administration of the compounds of the invention (T) and the time of mucus collection (M).
The mucus collected in day 1 in the morning is considered as a blank; 7 indicates the day of the animal sacrifice after the mucous collection.
The sputum samples are stored in the freezer (-20° C.) until the investigation of biological and rheological parameters is carried out.
The samples are investigated for relative viscosity, measured at 37° C. with a Brookfield viscometer (model LT VD) equipped with a 1,565° cone-plate, and aliquoted for biochemical analysis of protein, phospholipids, galactose, sialic acid and fucose contents. Dry weight of the mucus is also determined. For each parameter, cumulative data are referred to a seven days period after the beginning of the treatment and they are extrapolated using the AUC method (area under curve) calculated by the trapazoidal rule. Finally the data are compared with data obtained from controls (vehicle treatment), non bronchitic rabbits (vehicle treatment) and positive controls bronchitic rabbits treated with 0.153M […].

mice = assay: Sedative effect; format: in vivo
Acute toxicity in mice = settings: mouse, in vivo
[4] = tested on: guinea pig trachea smooth muscle strips; assay: In vitro relaxation of guinea pig trachea smooth muscle strips contracted by methacoline; settings: for EC50: Cavia porcellus, contracted by methacoline, read-out: ED50 (relaxation of trachea smooth muscle strips)
[5] = tested on: bronchospasm induced by i.v. histamine; assay: Resolution of bronchospasm induced by i.v. histamine in anesthetized guinea-pigs (Konzett-Ressler test); format: in vivo; settings: intrajugular administration; more active than aminophylline
[6] = tested on: cough induced by citric acid aerosol in guinea pigs; assay: Guinea pig cough test (citric acid aerosol, Charlier procedure); format: in vivo; settings: for ED50: guinea pig cough test, i.p., 60 minutes after treatment, 60 min
Procedure: as §1
According to the Charlier procedure guinea pigs are exposed to a citric acid aerosol (7.5%) and cough is recorded 60 minutes after the antitussive treatment by i.p. route. Male animals of 300-400 g pigs are placed in perspex box (20×30×30 cm) connected to an aerosol compressor; the animals are subjected to a citric acid saturated atmosphere, 60 minutes after the i.p. injection of a compound of the invention (0.1 and 0.3M solutions; 1 ml/kg).
The total number of cough strokes and the delay of the first cough are recorded during the first five minutes.
Five guinea pigs are used for each dose level and the results are compared with controls (vehicle treatment) and codeine phosphate 0.07M solution (standard treatment).
ED50 and the corresponding delay of first cough stroke are calculated.
The data obtained by i.p. administration are confirmed by oral administration.

Compound: C#CCOc1ccccc1OCC1SCCN1C(=O)CCNCCNCCO (stereo not drawn)
- duration of action (antitussive) [1]: very prolonged duration of action
- ED50 [2]: 3 to 6 mg/kg

Compound: COc1ccccc1OCC1SCCN1C(=O)CNC(C)=O (stereo not drawn) [3-(N-acetylaminoacetyl)-2-(O-methoxyphenoxy)methyl-thiazolidine]
- ED50 [2]: 3 to 30 mg/kg

Compound: COc1ccccc1OCC1SCCN1C(=O)OC(C)(C)C (stereo not drawn) [3-BOC-2-(O-methoxyphenoxy)-methyl-thiazolidine]
- ED50 [2]: 3 to 30 mg/kg

Compound: COc1ccccc1OCC1SCCN1C(=O)Cn1ccnc1 (stereo not drawn) [3-(imidazol-1-yl)acetyl-2-(o-methoxyphenoxy)methyl-thiazolidine]
- Fucose (mg/ml), AUC as a 100% compared to bronchitic controls [3]: 97.5%
- Galactose (mg/ml), AUC as a 100% compared to bronchitic controls [3]: 21.8%
- Mucus production (ml/kg), AUC as a 100% compared to bronchitic controls [3]: 162.5%
- Phospholipids (mg/ml), AUC as a 100% compared to bronchitic controls [3]: 65.8%
- Protein (mg/ml), AUC as a 100% compared to bronchitic controls [3]: 55.2%
- Sialic acid (mg/ml), AUC as a 100% compared to bronchitic controls [3]: 63.8%
- Viscosity (cps), AUC as a 100% compared to bronchitic controls [3]: 39.1%
- mucus regulating activity (in words) [3]: strong mucus regulating activity
- ED50 [2]: 40.6 mg/kg

Compound: CCOC(=O)[C@@H]1CSC(COc2ccccc2OC)N1C(=O)CSC(C)=O (stereo partly drawn) [4-carbethoxy-2-(o-methoxyphenoxy)methyl-3-acetylthioacetyl-thiazolidine]
- Fucose (mg/ml), AUC as a 100% compared to bronchitic controls [3]: 111%
- Galactose (mg/ml), AUC as a 100% compared to bronchitic controls [3]: 69%
- Mucus production (ml/kg), AUC as a 100% compared to bronchitic controls [3]: 65%
- Phospholipids (mg/ml), AUC as a 100% compared to bronchitic controls [3]: 102%
- Protein (mg/ml), AUC as a 100% compared to bronchitic controls [3]: 79%
- Sialic acid (mg/ml), AUC as a 100% compared to bronchitic controls [3]: 78%
- Viscosity (cps), AUC as a 100% compared to bronchitic controls [3]: 91%
- sedative effect, starting dose (mice): ≥ 30 mg/kg
- LD50 (Acute toxicity in mice; ip): 670 mg/kg
- LD50 (Acute toxicity in mice; po, os): 760 mg/kg

- EC50 [4]: 190 µM
Compound: COc1ccccc1OCC1SCCN1C(=O)C=Cc1cc(CN2CCOCC2)c(O)c(OC)c1 (stereo not drawn) [3-(3'-morpholinomethyl-4'-hydroxy-3'-methoxy-cinnamoyl)-2-(O-methoxyphenoxy)methylthiazolidine hydrochloride]
- spasmolytic activity (in words) [4]: favourably compares with that of dihydroxypropyltheophylline
- activity relative to aminophylline in the resolution of bronchospasm [5]: 3-6 times

- EC50 [4]: 76 µM
Compound: Cn1c(=O)c2c(ncn2CC(O)CO)n(C)c1=O (stereo not drawn) [dihydroxypropyltheophylline, reference compound]

Compound: COc1ccccc1OCC1SCCN1C(=O)CSC(C)=O (stereo not drawn) [2-(o-methoxyphenoxy)methyl-3-acetylthioacetylthiazolidine]
- duration of action ([1]; dog cough test): more favourable duration of action in comparison to codeine
- inhibition of the cough stimulus ([1]; dog, 20 mg/kg): 54.2%
- Fucose (mg/ml), AUC as a 100% compared to bronchitic controls [3]: 151%
- Galactose (mg/ml), AUC as a 100% compared to bronchitic controls [3]: 57%
- Mucus production (ml/kg), AUC as a 100% compared to bronchitic controls [3]: 127%
- Phospholipids (mg/ml), AUC as a 100% compared to bronchitic controls [3]: 37%
- Protein (mg/ml), AUC as a 100% compared to bronchitic controls [3]: 78%
- Sialic acid (mg/ml), AUC as a 100% compared to bronchitic controls [3]: 107%
- Viscosity (cps), AUC as a 100% compared to bronchitic controls [3]: 59%
- mucus regulating activity (in words) [3]: mucus regulating properties
- antitussive properties (in words) [6]: good antitussive activity
- ED50 [6]: 77.1 mg/kg
- ED50 ([6]; listed as 3-Acetylthioacetyl-2-(o-methoxyphenoxymethyl)thiazolidine): lower than 5 mg/kg

Compound: COc1ccccc1OCC1(COc2ccccc2OC)SCCN1C(=O)CSC(C)=O
- duration of action ([1]; dog cough test): very prolonged action
- duration of action relative to codeine phosphate ([1]; dog cough test, longer than codeine phosphate): 2-3 times
- % inhibition of cough stimulus ([1]; dog, oral, dose not given): 13%
- ED50 [2]: 230 mg/kg

Compound: C=CCOc1ccccc1OCC1SCCN1C(=O)CN (stereo not drawn)
- ED50 [2]: 3 to 30 mg/kg

Compound: CCOC(=O)[C@@H]1CSC(COc2ccccc2OC)(COc2ccccc2OC)N1 [2,2-di(o-methoxyphenoxy)methyl-4-carbethoxythiazolidine]
- ED50 [2]: 116 mg/kg

Compound: CCOC(=O)C(=O)N1CCSC1COc1ccccc1OC (stereo not drawn) [3-ethoxyoxalyl-2-(o-methoxyphenoxy)methyl-thiazolidine]
- antitussive properties (in words) ([1]; dog cough test): devoid of any antitussive properties
- Fucose (mg/ml), AUC as a 100% compared to bronchitic controls [3]: 149.3%
- Galactose (mg/ml), AUC as a 100% compared to bronchitic controls [3]: 52.3%
- Mucus production (ml/kg), AUC as a 100% compared to bronchitic controls [3]: 108.7%
- Phospholipids (mg/ml), AUC as a 100% compared to bronchitic controls [3]: 59.8%
- Protein (mg/ml), AUC as a 100% compared to bronchitic controls [3]: 62%
- Sialic acid (mg/ml), AUC as a 100% compared to bronchitic controls [3]: 56.8%
- Viscosity (cps), AUC as a 100% compared to bronchitic controls [3]: 65.1%
- antitussive properties (in words) [6]: devoid of any antitussive properties

Compound: COc1ccccc1OCC1SCCN1C(=O)C1CC1 (stereo not drawn) [3-cyclopropylcarbonyl-2-(o-methoxyphenoxy)methylthiazolidine]
- antitussive properties (in words) ([1]; dog cough test): devoid of any antitussive properties
- Fucose (mg/ml), AUC as a 100% compared to bronchitic controls [3]: 103.6%
- Galactose (mg/ml), AUC as a 100% compared to bronchitic controls [3]: 60.0%
- Mucus production (ml/kg), AUC as a 100% compared to bronchitic controls [3]: 90%
- Phospholipids (mg/ml), AUC as a 100% compared to bronchitic controls [3]: 74.5%
- Protein (mg/ml), AUC as a 100% compared to bronchitic controls [3]: 57.9%
- Sialic acid (mg/ml), AUC as a 100% compared to bronchitic controls [3]: 60%
- Viscosity (cps), AUC as a 100% compared to bronchitic controls [3]: 92.6%
- antitussive properties (in words) [6]: devoid of any antitussive properties

Compound: COc1ccccc1OCC1SCCN1C(=O)CN (stereo not drawn) [3-glycinyl-2-(O-methoxyphenoxy)methyl-thiazolidine]
- ED50 [2]: 3 to 30 mg/kg

Compound: O=C(Cn1ccnc1)N1CCSC1COc1ccccc1O (stereo not drawn) [3-(imidazol-1'-yl)acetyl-2-[(o-hydroxyphenoxy)methyl]thiazolidone]
- mucus regulating activity (in words) [3]: strong mucus regulating activity
- ED50 [2]: 96 mg/kg

Compound: COc1ccccc1OCC1SCCN1C(=O)CCNCCNCCO (stereo not drawn) [3-(3-(2-hydroxyethylamino)ethyl)aminopropanoyl-2-((O-methoxyphenoxy)methyl-thiazolidinebis maleate]
- duration of action (antitussive) [1]: very prolonged duration of action
- ED50 [2]: 3 to 6 mg/kg

Compound: Cc1ccccc1OCC1SCCN1C(=O)Cn1ccnc1 (stereo not drawn) [2-tolyloxy-methyl-3-(imidazol-1'-yl)acetylthiazolidine]
- antitussive properties (in words) ([1]; dog cough test): not active in the cough tests
- mucus regulating activity (in words) [3]: some mucus regulating action in the bronchitic rabbits, with a spectrum of action very close to that of carboxymethylcysteine
- antitussive properties (in words) [6]: not active in the cough tests
